Measured values from the supplement of paper PMC8882468.

Test system: HCI-001 (organoid from a triple-negative breast cancer xenograft)
Assay: CTG-3D luminescence at 96 h relative to day-0 seeding control (ratio to day 0); higher = more growth / less cytotoxicity; PDxO 3D drug screen, 96 h, CTG-3D normalised to day-0 seeding control.
Settings: 625 fM; days in culture: 260

SMILES | CTG-3D luminescence at 96 h
NC1(C(=O)N[C@@H](CCO)c2ccc(Cl)cc2)CCN(c2nc[nH]c3nccc2-3)CC1 [capivasertib] | 1.71
CC(C)n1nc(-c2ccc3oc(N)nc3c2)c2c(N)ncnc21 [sapanisertib] | 1.6
O=C(c1ccc(F)c(F)c1Nc1ccc(I)cc1F)N1CC(O)([C@@H]2CCCCN2)C1 [cobimetinib] | 1.87
C[C@H](NC(=O)CCC(F)(F)F)C(=O)N[C@@H]1C(=O)N(CCO)c2ncccc2-c2ccccc21 [crenigacestat] | 1.44
Cc1cc(Nc2ncc(Cl)c(Nc3ccccc3S(=O)(=O)C(C)C)n2)c(OC(C)C)cc1C1CCNCC1 [ceritinib] | 1.55
CS(=O)(=O)c1ccc(C(=O)Nc2ccc(Cl)c(-c3ccccn3)c2)c(Cl)c1 [vismodegib] | 1.99
NC(=O)c1cccc2cn(-c3ccc([C@@H]4CCCNC4)cc3)nc12 [niraparib] | 1.4
Cc1cc(Nc2ncnc3ccc(NC4=NC(C)(C)CO4)cc23)ccc1Oc1ccn2ncnc2c1 [tucatinib] | 1.5
CCN(c1cc(C#CCN2CCOCC2)cc(C(=O)NCc2c(C)cc(C)[nH]c2=O)c1C)[C@H]1CC[C@H](N(C)CCOC)CC1 | 1.77

Same assay, conditions: 625 fM; days in culture: 269

SMILES | CTG-3D luminescence at 96 h
NC1(C(=O)N[C@@H](CCO)c2ccc(Cl)cc2)CCN(c2nc[nH]c3nccc2-3)CC1 [capivasertib] | 1.71
CC(C)n1nc(-c2ccc3oc(N)nc3c2)c2c(N)ncnc21 [sapanisertib] | 1.56
O=C(c1ccc(F)c(F)c1Nc1ccc(I)cc1F)N1CC(O)([C@@H]2CCCCN2)C1 [cobimetinib] | 1.53
C[C@H](NC(=O)CCC(F)(F)F)C(=O)N[C@@H]1C(=O)N(CCO)c2ncccc2-c2ccccc21 [crenigacestat] | 1.33
Cc1cc(Nc2ncc(Cl)c(Nc3ccccc3S(=O)(=O)C(C)C)n2)c(OC(C)C)cc1C1CCNCC1 [ceritinib] | 1.9
CS(=O)(=O)c1ccc(C(=O)Nc2ccc(Cl)c(-c3ccccn3)c2)c(Cl)c1 [vismodegib] | 1.51
NC(=O)c1cccc2cn(-c3ccc([C@@H]4CCCNC4)cc3)nc12 [niraparib] | 1.67
Cc1cc(Nc2ncnc3ccc(NC4=NC(C)(C)CO4)cc23)ccc1Oc1ccn2ncnc2c1 [tucatinib] | 1.69
CCN(c1cc(C#CCN2CCOCC2)cc(C(=O)NCc2c(C)cc(C)[nH]c2=O)c1C)[C@H]1CC[C@H](N(C)CCOC)CC1 | 1.58

Same assay, conditions: 625 fM; days in culture: 327

SMILES | CTG-3D luminescence at 96 h
NC1(C(=O)N[C@@H](CCO)c2ccc(Cl)cc2)CCN(c2nc[nH]c3nccc2-3)CC1 [capivasertib] | 1.81
CC(C)n1nc(-c2ccc3oc(N)nc3c2)c2c(N)ncnc21 [sapanisertib] | 1.75
O=C(c1ccc(F)c(F)c1Nc1ccc(I)cc1F)N1CC(O)([C@@H]2CCCCN2)C1 [cobimetinib] | 1.52
C[C@H](NC(=O)CCC(F)(F)F)C(=O)N[C@@H]1C(=O)N(CCO)c2ncccc2-c2ccccc21 [crenigacestat] | 1.76
Cc1cc(Nc2ncc(Cl)c(Nc3ccccc3S(=O)(=O)C(C)C)n2)c(OC(C)C)cc1C1CCNCC1 [ceritinib] | 1.92
CS(=O)(=O)c1ccc(C(=O)Nc2ccc(Cl)c(-c3ccccn3)c2)c(Cl)c1 [vismodegib] | 1.94
NC(=O)c1cccc2cn(-c3ccc([C@@H]4CCCNC4)cc3)nc12 [niraparib] | 2.27
Cc1cc(Nc2ncnc3ccc(NC4=NC(C)(C)CO4)cc23)ccc1Oc1ccn2ncnc2c1 [tucatinib] | 1.78
CCN(c1cc(C#CCN2CCOCC2)cc(C(=O)NCc2c(C)cc(C)[nH]c2=O)c1C)[C@H]1CC[C@H](N(C)CCOC)CC1 | 2.05

Same assay, conditions: 625 fM; days in culture: 346

SMILES | CTG-3D luminescence at 96 h
NC1(C(=O)N[C@@H](CCO)c2ccc(Cl)cc2)CCN(c2nc[nH]c3nccc2-3)CC1 [capivasertib] | 1.33
CC(C)n1nc(-c2ccc3oc(N)nc3c2)c2c(N)ncnc21 [sapanisertib] | 1.13
O=C(c1ccc(F)c(F)c1Nc1ccc(I)cc1F)N1CC(O)([C@@H]2CCCCN2)C1 [cobimetinib] | 1.11
C[C@H](NC(=O)CCC(F)(F)F)C(=O)N[C@@H]1C(=O)N(CCO)c2ncccc2-c2ccccc21 [crenigacestat] | 1.11
Cc1cc(Nc2ncc(Cl)c(Nc3ccccc3S(=O)(=O)C(C)C)n2)c(OC(C)C)cc1C1CCNCC1 [ceritinib] | 1.39
CS(=O)(=O)c1ccc(C(=O)Nc2ccc(Cl)c(-c3ccccn3)c2)c(Cl)c1 [vismodegib] | 1.34
NC(=O)c1cccc2cn(-c3ccc([C@@H]4CCCNC4)cc3)nc12 [niraparib] | 1.28
Cc1cc(Nc2ncnc3ccc(NC4=NC(C)(C)CO4)cc23)ccc1Oc1ccn2ncnc2c1 [tucatinib] | 1.21
CCN(c1cc(C#CCN2CCOCC2)cc(C(=O)NCc2c(C)cc(C)[nH]c2=O)c1C)[C@H]1CC[C@H](N(C)CCOC)CC1 | 1.32

Same assay, conditions: 625 fM; days in culture: 364

SMILES | CTG-3D luminescence at 96 h
NC1(C(=O)N[C@@H](CCO)c2ccc(Cl)cc2)CCN(c2nc[nH]c3nccc2-3)CC1 [capivasertib] | 1.47
CC(C)n1nc(-c2ccc3oc(N)nc3c2)c2c(N)ncnc21 [sapanisertib] | 1.46
O=C(c1ccc(F)c(F)c1Nc1ccc(I)cc1F)N1CC(O)([C@@H]2CCCCN2)C1 [cobimetinib] | 1.51
C[C@H](NC(=O)CCC(F)(F)F)C(=O)N[C@@H]1C(=O)N(CCO)c2ncccc2-c2ccccc21 [crenigacestat] | 1.43
Cc1cc(Nc2ncc(Cl)c(Nc3ccccc3S(=O)(=O)C(C)C)n2)c(OC(C)C)cc1C1CCNCC1 [ceritinib] | 1.85
CS(=O)(=O)c1ccc(C(=O)Nc2ccc(Cl)c(-c3ccccn3)c2)c(Cl)c1 [vismodegib] | 1.64
NC(=O)c1cccc2cn(-c3ccc([C@@H]4CCCNC4)cc3)nc12 [niraparib] | 1.67
Cc1cc(Nc2ncnc3ccc(NC4=NC(C)(C)CO4)cc23)ccc1Oc1ccn2ncnc2c1 [tucatinib] | 1.63
CCN(c1cc(C#CCN2CCOCC2)cc(C(=O)NCc2c(C)cc(C)[nH]c2=O)c1C)[C@H]1CC[C@H](N(C)CCOC)CC1 | 1.88

Test system: HCI-002 (organoid from a triple-negative breast cancer xenograft)
Assay: CTG-3D luminescence at 96 h relative to day-0 seeding control (ratio to day 0); higher = more growth / less cytotoxicity; PDxO 3D drug screen (set 2), 96 h, CTG-3D normalised to day-0 seeding control.
Settings: 12.5 pM; days in culture: 127

SMILES | CTG-3D luminescence at 96 h
CC(C)n1nc(-c2ccc3oc(N)nc3c2)c2c(N)ncnc21 [sapanisertib] | 2.42

Same assay, conditions: 12.5 pM; days in culture: 155

SMILES | CTG-3D luminescence at 96 h
CC(C)n1nc(-c2ccc3oc(N)nc3c2)c2c(N)ncnc21 [sapanisertib] | 5.75

Same assay, conditions: 12.5 pM; days in culture: 168

SMILES | CTG-3D luminescence at 96 h
CC(C)n1nc(-c2ccc3oc(N)nc3c2)c2c(N)ncnc21 [sapanisertib] | 3.37

Same assay, conditions: 0.00025 µM; days in culture: 127

SMILES | CTG-3D luminescence at 96 h
CC(C)n1nc(-c2ccc3oc(N)nc3c2)c2c(N)ncnc21 [sapanisertib] | 2.94

Same assay, conditions: 0.00025 µM; days in culture: 155

SMILES | CTG-3D luminescence at 96 h
CC(C)n1nc(-c2ccc3oc(N)nc3c2)c2c(N)ncnc21 [sapanisertib] | 5.31

Same assay, conditions: 0.00025 µM; days in culture: 168

SMILES | CTG-3D luminescence at 96 h
CC(C)n1nc(-c2ccc3oc(N)nc3c2)c2c(N)ncnc21 [sapanisertib] | 3.2

Same assay, conditions: 0.005 µM; days in culture: 127

SMILES | CTG-3D luminescence at 96 h
CC(C)n1nc(-c2ccc3oc(N)nc3c2)c2c(N)ncnc21 [sapanisertib] | 2.62

Same assay, conditions: 0.005 µM; days in culture: 155

SMILES | CTG-3D luminescence at 96 h
CC(C)n1nc(-c2ccc3oc(N)nc3c2)c2c(N)ncnc21 [sapanisertib] | 5.49

Same assay, conditions: 0.005 µM; days in culture: 168

SMILES | CTG-3D luminescence at 96 h
CC(C)n1nc(-c2ccc3oc(N)nc3c2)c2c(N)ncnc21 [sapanisertib] | 3.78

Same assay, conditions: 0.1 µM; days in culture: 127

SMILES | CTG-3D luminescence at 96 h
CC(C)n1nc(-c2ccc3oc(N)nc3c2)c2c(N)ncnc21 [sapanisertib] | 1.76

Same assay, conditions: 0.1 µM; days in culture: 155

SMILES | CTG-3D luminescence at 96 h
CC(C)n1nc(-c2ccc3oc(N)nc3c2)c2c(N)ncnc21 [sapanisertib] | 2.38

Same assay, conditions: 0.1 µM; days in culture: 168

SMILES | CTG-3D luminescence at 96 h
CC(C)n1nc(-c2ccc3oc(N)nc3c2)c2c(N)ncnc21 [sapanisertib] | 1.61

Same assay, conditions: 1 µM; days in culture: 127

SMILES | CTG-3D luminescence at 96 h
CC(C)n1nc(-c2ccc3oc(N)nc3c2)c2c(N)ncnc21 [sapanisertib] | 0.875

Same assay, conditions: 1 µM; days in culture: 155

SMILES | CTG-3D luminescence at 96 h
CC(C)n1nc(-c2ccc3oc(N)nc3c2)c2c(N)ncnc21 [sapanisertib] | 1.32

Same assay, conditions: 1 µM; days in culture: 168

SMILES | CTG-3D luminescence at 96 h
CC(C)n1nc(-c2ccc3oc(N)nc3c2)c2c(N)ncnc21 [sapanisertib] | 0.882

Same assay, conditions: 10 µM; days in culture: 127

SMILES | CTG-3D luminescence at 96 h
CC(C)n1nc(-c2ccc3oc(N)nc3c2)c2c(N)ncnc21 [sapanisertib] | 0.742

Same assay, conditions: 10 µM; days in culture: 155

SMILES | CTG-3D luminescence at 96 h
CC(C)n1nc(-c2ccc3oc(N)nc3c2)c2c(N)ncnc21 [sapanisertib] | 0.875

Same assay, conditions: 10 µM; days in culture: 168

SMILES | CTG-3D luminescence at 96 h
CC(C)n1nc(-c2ccc3oc(N)nc3c2)c2c(N)ncnc21 [sapanisertib] | 0.787

Same assay, conditions: 100 µM; days in culture: 127

SMILES | CTG-3D luminescence at 96 h
CC(C)n1nc(-c2ccc3oc(N)nc3c2)c2c(N)ncnc21 [sapanisertib] | 0.27

Same assay, conditions: 100 µM; days in culture: 155

SMILES | CTG-3D luminescence at 96 h
CC(C)n1nc(-c2ccc3oc(N)nc3c2)c2c(N)ncnc21 [sapanisertib] | 0.163

Same assay, conditions: 100 µM; days in culture: 168

SMILES | CTG-3D luminescence at 96 h
CC(C)n1nc(-c2ccc3oc(N)nc3c2)c2c(N)ncnc21 [sapanisertib] | 0.155

Same assay, conditions: 625 fM; days in culture: 127

SMILES | CTG-3D luminescence at 96 h
CC(C)n1nc(-c2ccc3oc(N)nc3c2)c2c(N)ncnc21 [sapanisertib] | 3.04

Same assay, conditions: 625 fM; days in culture: 155

SMILES | CTG-3D luminescence at 96 h
CC(C)n1nc(-c2ccc3oc(N)nc3c2)c2c(N)ncnc21 [sapanisertib] | 4.67

Same assay, conditions: 625 fM; days in culture: 168

SMILES | CTG-3D luminescence at 96 h
CC(C)n1nc(-c2ccc3oc(N)nc3c2)c2c(N)ncnc21 [sapanisertib] | 4.04
